Measured values published in EP1020434A1, “3-AMIDINOANILINE DERIVATIVES, ACTIVATED BLOOD COAGULATION FACTOR X INHIBITORS, AND INTERMEDIATES FOR PRODUCING BOTH” (priority 1997, dated 1999).
Where a name gives a salt, the structure may show the parent alone. Read-outs that look alike come from different tables or passages of the source.

What was measured:
[1] = molecular target: T1, human activated blood coagulation factor X (Homo sapiens, UniProt P00742); test: Measurement of inhibitory activity for activated blood coagulation factor X (chromogenic substrate S-2222); format: biochemical
T1 construct: purchased Calbiochem Corporation
Procedure: Measurement of inhibitory activity for activated blood coagulation factor X
(§1) Five µl of dimethylsulfoxide solution of test compound, 375 µl of tris-hydrochloric acid buffer (pH 8.4) and 100 µl of 1 mM S-2222 (Daiichi Pure Chemicals) aqueous solution were mixed. Then 20 µl of 0.6 U/ml human activated blood coagulation factor X (Calbiochem Corporation) in gelatin-glycine buffer was added and the mixture was incubated for 10 minutes at 37 °C. The reaction was terminated with the addition of 100 µl of 60 % acetic acid and absorbance (405 nm) was measured.
The group without the test compound was defined as control and the group without human activated blood coagulation factor X was defined as blank.

normal human plasma = test: Measurement of anticoagulation effects (plasma prothrombin time); format: biochemical; conditions: CT2, concentration that prolonged the clotting time (prothrombin time) of control by 2 times
Procedure: Measurement of anticoagulation effects (plasma prothrombin time)
Two µl of dimethylsulfoxide solution of test compound which was put in a process tube was incubated at 37 °C, and 50 µl of normal human plasma (George King Bio-Medical Inc.) was mixed. One minute later, 100 µl of plasma prothrombin time reagent (Neoplastin Plus®, Boehringer Mannheim) was added into the mixture. Prothrombin time was measured with ST4 (Boehringer Mannheim).
The group without the test compound was defined as control. The concentration of test compound that prolonged the clotting time of control by 2 times (CT2) was obtained and this value was used as the index of anticoagulation activity.

human thrombin = molecular target: T2, human thrombin (Homo sapiens, UniProt P00734); test: Measurement of inhibitory activity for thrombin (chromogenic substrate S-2238); format: biochemical
T2 construct: human thrombin (Sigma Chemical Company); purchased Sigma Chemical Company
Procedure: Measurement of inhibitory activity for thrombin
as §1, with “S-2238” for “S-2222”, “2.0” for “0.6”, “thrombin (Sigma Chemical Company)” for “activated blood coagulation factor X (Calbiochem Corporation)”
The group without the test compound was defined as control and the group without human thrombin was defined as blank. […]

Male Wistar rats = test: Acute toxicity test; format: in vivo
Procedure: Male Wistar rats aged 7 weeks (SLC) were divided into several groups consisting of 5 rats. The test compound was dissolved at the concentration that became the administration volume as 2.5 ml/kg. The solution was administered through the tail vein at an infusion rate of 1 ml/minute. Observations were performed at constant intervals, and survival rate was judged for 24 hours.

[2] = IC50, concentration showing 50 % inhibition of control, 10 minutes at 37 °C, pH 8.4, read-out: Inhibitory activity for activated blood coagulation factor X
[3] = IC50, concentration showing 50 % inhibition of control, 10 minutes at 37 °C, pH 8.4, read-out: Inhibitory activity for thrombin

T1 sequence (P00742 235-488 limits assumed): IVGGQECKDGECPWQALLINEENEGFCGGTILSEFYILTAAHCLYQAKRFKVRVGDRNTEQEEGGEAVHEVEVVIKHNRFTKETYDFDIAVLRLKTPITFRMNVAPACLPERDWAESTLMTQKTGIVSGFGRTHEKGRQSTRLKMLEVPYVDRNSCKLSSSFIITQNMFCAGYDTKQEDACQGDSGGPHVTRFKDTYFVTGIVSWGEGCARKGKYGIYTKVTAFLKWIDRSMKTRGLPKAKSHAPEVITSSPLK
T1 sequence (P00742 41-179 partner limits assumed): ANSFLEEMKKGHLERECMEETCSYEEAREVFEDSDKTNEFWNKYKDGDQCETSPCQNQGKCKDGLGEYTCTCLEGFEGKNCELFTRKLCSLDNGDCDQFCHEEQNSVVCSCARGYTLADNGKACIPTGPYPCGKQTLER

Compound | IC50 [1, 2] [µM] | Anticoagulation effect (normal human plasma) [µM] | IC50 (human thrombin; [3]) [µM] | IC50 [1] [µM] | IC50 (human thrombin) [µM] | Death case (Male Wistar rats; 30 mg/kg through the tail vein, groups of 5 rats, survival judged for 24 hours) | death in acute toxicity test (Male Wistar rats; rats, intravenous administration, dose of 30 mg/kg)
CC(C)=CCN(CC(=O)Nc1ccc(OC(C)C)cc1)c1cccc(C(=N)N)c1.Cl [Compound 22, 2-[N-(3-Amidinophenyl)-N-(3-methyl-2-butenyl)amino]-N-(4-isopropoxyphenyl)acetamide hydrochloride] | 0.015 | 0.29 | 13 |  |  |  | 
CC(=N)N1CCC(c2ccc(NC(=O)CN(Cc3cccc(O)c3)c3cccc(C(=N)N)c3)cc2)CC1.Cl.Cl [Compound 52, 2-[N-(3-Amidinophenyl)-N-(3-hydroxybenzyl)amino]-N-[4-[1-(1-iminoethyl)piperidin-4-yl]phenyl]acetamide dihydrochloride] | 0.016 | 0.17 | 77 |  |  |  | 
CC(=N)N1CCC(c2ccc(NC(=O)CN(CC=C(C)C)c3cccc(C(=N)N)c3)cc2)CC1.Cl.Cl [Compound 55, 2-[N-(3-Amidinophenyl)-N-(3-methyl-2-butenyl)amino]-N-[4-[1-(1-iminoethyl)piperidin-4-yl]phenyl]acetamide dihydrochloride] | 0.004 | 0.091 | 15 |  |  |  | 
CC(=N)N1CCC(Oc2ccc(NC(=O)CN(Cc3ccccc3)c3cccc(C(=N)N)c3)cc2)CC1 [Compound 58, 2-[N-(3-Amidinophenyl)-N-benzylaminol-N-[4-[1-(1-imino-ethyl)piperidin-4-yloxy]phenyl]acetamidedihydrochloride] |  | 0.24 |  | 0.042 | 100 |  | 
CC(=N)N1CCC(c2ccc(NC(=O)CN(Cc3cccc(OCC(=O)O)c3)c3cccc(C(=N)N)c3)cc2)CC1.Cl.Cl [Compound 62, 2-[N-(3-Amidinophenyl)-N-(3-carboxymethyloxybenzyl)amino]-N-[4-[1-(1-iminoethyl)piperidin-4-yl]phenyl]acetamide dihydrochloride] |  | 0.21 | 206 |  |  | 0/5 | no death was observed
CC(=N)N1CCC(c2ccc(NC(=O)CN(Cc3cccc4ccccc34)c3cccc(C(=N)N)c3)cc2)CC1 [Compound 65, 2-[N-(3-Amidinophenyl)-N-(1-naphthylmethyl)amino]-N-[4-[1-(1-iminoethyl)piperidin-4-yl]phenyl]acetamide dihydrochloride] | 0.008 |  | 42 |  |  |  | 
CC(=N)N1CCC(c2ccc(NC(=O)CN(Cc3nc[nH]c3C)c3cccc(C(=N)N)c3)cc2)CC1.Cl.Cl [Compound 74, 2-[N-(3-Amidinophenyl)-N-(5-methylimidazol-4-ylmethyl)amino]-N-[4-[1-(1-iminoethyl)piperidin-4-yl]phenyl]acetamide dihydrochloride] | 0.019 | 0.30 | 177 |  |  |  | 
CC(=N)N1CCC(Oc2ccc(NC(=O)CNc3cccc(C(=N)N)c3)cc2)CC1 [Compound 79, 2-(3-Amidinophenylamino)-N-[4-[1-(1-iminoethyl)piperidin-4-yloxy]phenyl]acetamide dihydrochloride] | 0.096 |  | 308 |  |  |  | 
